The record followed here is patent publication US20240325544A1, “CATIONIC LIPID FOR COVALENT MODIFICATION OF PEPTIDES” (PharmalN Corporation, priority 2023, published 2024).

Bridge positions count the residues as written; N and C are the ends. Square brackets hold non-standard residues; d marks the D form. Peptide text beside a SMILES is read from it. * marks the point of attachment. Palmitoyl = CCCCCCCCCCCCCCCC(=O)*; Dab = NCC[C@H](N)C(=O)O; Dap = NC[C@H](N)C(=O)O; AEEA = NCCOCCOCC(=O)O

Assay [1] concerns E0771 breast cancer cells. In words: Orthotopic mouse model of breast cancer using E0771 cells (FIG. 6). The settings on record: 0.3 mg/kg (0.1 μmol/kg) SC once daily, 5 days on, 2 days off, 3 cycles. It is filed as in vivo, mice. As for the experimental part: Error bars represent standard error of the mean. FIG. 6A) Tumor growth kinetics of 6-week-old female C57BL/6J mice (n=10 per group) that were inoculated with E0771 breast cancer cells (250,000 cells/mouse) in the mammary gland. Starting from Day 4 post-inoculation, cationic alkyl modified CNP derivatives (SEQ ID NO: 29, 30, and 31) were administered subcutaneously at a bolus dose of 0.3 mg/kg (0.1 μmol/kg) once daily for 5 days (5 days on, 2 days off) for 3 cycles; dose days indicated by gridlines. The control group, which received only buffer, was dosed in the same manner to establish the baseline tumor growth kinetics. […] Therefore, it can be concluded that the attachment of CNP is important for the observed anti-tumor activity. Statistical analysis was based on Dunnett's test performed by using GraphPad (n=10, 10, 10, and 10; Control, SEQ ID NO: 29, SEQ ID NO: 30, and SEQ ID NO: 31) **** P<0.0001 vs Control group.
Therefore, it can be concluded that the attachment of CNP is essential for anti-tumor activity. […] Animal care and treatment: Female C57BL/6J mice (6 weeks-old) were purchased from Kyudo (Saga, Japan) and maintained under a 12-hour light/12-hour dark cycle with free access to water and standard mouse diet (MF diet, Oriental Yeast Co., Ltd. Tokyo, Japan or PicoLab Rodent Diet 20, LabDiet Corp., St. Louis, Missouri). Implantation and drug administration: Mice were implanted with E0771 breast cancer cells (250,000 cells/mouse; Cosmo Bio Tokyo, Japan) in their left mammary gland and were randomized into groups of n=10. Starting from Day 4 post-inoculation, cationic alkyl modified CNP derivatives (SEQ ID NOs: 29, 30, and 31) were administered subcutaneously at a bolus dose of 0.3 mg/kg (0.1 μmol/kg; with a dose volume of 10 mL/kg) in sterile water for injection (Otsuka Pharmaceutical, Tokushima, Japan) once daily for 5 days (5 days on, 2 days off) for 3 cycles. The control group, which received only buffer, was dosed in the same manner to establish the baseline tumor growth kinetics. Tumor sizes were measured using calipers. Statistical analysis was based on Dunnett's test performed by using GraphPad (n=10, 10, 10, and 10; Control, SEQ ID NO: 29, SEQ ID NO: 30, and SEQ ID NO: 31) **** P<0.0001 vs Control group.

A further assay has as its system C57BL/6J mice. The assay is described as follows: Survival in LPS induced sepsis model (FIG. 2A). The settings on record: LPS 15 mg/kg IP; 0.3 mg/kg (0.1 μmol/kg) SC once, survival to 56 hours. It is filed as in vivo. As for the experimental part: FIGS. 2A-2B: Single and repeat administration of cationic alkyl modified C-type Natriuretic Peptides increases probability of survival in LPS induced Sepsis and ALI animal models. FIG. 2A) Sepsis induction: Male C57BL/6J mice (n=10 per group; 3 groups) were injected IP with LPS (15 mg/kg) and treated with various test articles, including cationic alkyl modified CNPs (SEQ ID NO: 31 and 29; 0.3 mg/kg (0.1 μmol/kg) SC). The control group received LPS treatment without any test article. The test articles were administered immediately after LPS administration (marked with vertical dotted lines). Survival was monitored every 2 hours from 8-56 hours, after which the surviving mice were euthanized under isoflurane anesthesia. […] Survival was monitored every 8 hours for 72 hours, after which the surviving mice were euthanized under isoflurane anesthesia. […]
Animal care and treatment: Male C57BL/6J mice (6 weeks-old) were purchased from Kyudo (Saga, Japan) and maintained under a 12-hour light/12-hour dark cycle with free access to water and standard mouse diet (MF diet, Oriental Yeast Co., Ltd. Tokyo, Japan). […] Survival was monitored every 2 hours from 8-56 hours, after which the mice were euthanized under isoflurane anesthesia. […] Survival was monitored every 8 hours for 72 hours, after which the mice were euthanized under isoflurane anesthesia. […]

`CCCCCCCCCCCCCCCC(=O)NCCOCCOCC(=O)NCCOCCOCC(=O)NCCOCCOCC(=O)N[C@@H](CCN)C(=O)N[C@@H](CCN)C(=O)NCC(=O)N[C@@H](CC(C)C)C(=O)N[C@@H](CO)C(=O)N[C@@H](CCCCN)C(=O)NCC(=O)N[C@H]1CSSC[C@@H](C(=O)O)NC(=O)CNC(=O)[C@H](CC(C)C)NC(=O)CNC(=O)[C@H](CO)NC(=O)[C@H](CCC(N)=O)NC(=O)[C@H](CO)NC(=O)CNC(=O)[C@H]([C@@H](C)CC)NC(=O)[C@H](CCCNC(=N)N)NC(=O)[C@H](CC(=O)O)NC(=O)[C@H](CC(C)C)NC(=O)[C@H](CCCCN)NC(=O)[C@H](CC(C)C)NC(=O)CNC(=O)[C@H](Cc2ccccc2)NC1=O` [SEQ ID NO: 29] ({Palmitoyl-AEEA-AEEA-AEEA}-[Dab][Dab]GLSKGCFGLKLDRIGSQSGLGC-OH; disulfide 8-24; C-terminus assumed): the “Tumor volume compared to the Control group” value in assay [1] is recorded as “significant decrease in tumor volume”. The Survival entry in the assay with C57BL/6J mice is listed as “effective in improving survival”.
In the case of `CCCCCCCCCCCCCCCC(=O)NCCOCCOCC(=O)NCCOCCOCC(=O)NCCOCCOCC(=O)N[C@@H](CN)C(=O)N[C@@H](CN)C(=O)NCC(=O)N[C@@H](CC(C)C)C(=O)N[C@@H](CO)C(=O)N[C@@H](CCCCN)C(=O)NCC(=O)N[C@H]1CSSC[C@@H](C(=O)O)NC(=O)CNC(=O)[C@H](CC(C)C)NC(=O)CNC(=O)[C@H](CO)NC(=O)[C@H](CCC(N)=O)NC(=O)[C@H](CO)NC(=O)CNC(=O)[C@H]([C@@H](C)CC)NC(=O)[C@H](CCCNC(=N)N)NC(=O)[C@H](CC(=O)O)NC(=O)[C@H](CC(C)C)NC(=O)[C@H](CCCCN)NC(=O)[C@H](CC(C)C)NC(=O)CNC(=O)[C@H](Cc2ccccc2)NC1=O` [SEQ ID NO: 31] ({Palmitoyl-AEEA-AEEA-AEEA}-[Dap][Dap]GLSKGCFGLKLDRIGSQSGLGC-OH; disulfide 8-24; C-terminus assumed), the “Tumor volume compared to the Control group” value in assay [1] is reported as “significant decrease in tumor volume”. The Survival entry with C57BL/6J mice was “effective in improving survival”.
